The text below walks through data of patent US20100298244A1, “COMPOSITION FOR THE PREVENTION AND THE TREATMENT OF HELICOBACTER PYLORI INFECTION” (NATIONAL TAIWAN UNIVERSITY, priority 2009, published 2010).

The test system of this experiment is 20 Helicobacter pylori strains. In words: MIC by agar dilution method. It counts as cell-based. For orientation: In agar dilution the substance is mixed into plates at graded concentrations.

As usually defined, the MIC is the smallest concentration in the dilution series that meets the test's criterion for growth inhibition. What is called MIC90 is an inhibitory concentration at the 90% level, which refers to growth in some studies and to a panel of isolates in others.

On to `CC(=O)N[C@H]1[C@H]([C@H](O)[C@H](O)CO)OC(O)(C(=O)O)C[C@@H]1O` (stereo partly shown) [Sialic acid, N-Acetylneuraminic acid], for which the “MIC Range” value (20 H. pylori strains (10 resistant to metronidazole and clarithromycin, 10 sensitive)) was more than 4000 µg/mL. In addition, the MIC (Helicobacter pylori, 20 H. pylori strains, read-out: MIC For 50% of strains) is more than 4000 µg/mL. The MIC90 (Helicobacter pylori, 20 H. pylori strains, read-out: MIC For 90% of strains (MIC90)) was more than 4000 µg/mL. For the same compound, the “inhibitory activity against Helicobacter pylori” value (alone) is recorded as “did not show any inhibitory activity”.
